What was measured:
Type in all cases: biochemical
recombinant human DPP7 = target: T1, recombinant human DPP7 (Homo sapiens, UniProt Q9UHL4); test: DPP7 inhibition, fluorogenic substrate Lys-Pro-AMC; settings: recombinant human DPP7
T1 construct: purchased R&D Systems
Experimental: The compounds according to the present technology were evaluated in terms of the inhibitory effect on the activity of dipeptidyl peptidases including FAP by using a substrate producing fluorescent substances upon enzymatic decomposition. The test was conducted at 25° C. to get a final reaction volume of 100 μL in a 96 black well plate. […] Briefly, the test compounds were dissolved in dimethyl sulfoxide (DMSO) at a concentration of 20 mM and then subjected to serial dilution, thereby creating an 8 point curve. As for the control group, a 6 point curve created by serial dilution of Talabostat in the same buffer solution was used. Fluorescence intensity was measured using a microplate reader (Flexstation3, Molecular Devices) under the wavelength condition exciting at 380 nm and reading the emission at 460 nm. The inhibitory effect of the test compounds was measured as a decrease (%) in the signal rate as compared to the control group without any inhibitor. Data was fixed to a logistic model with four variables and IC50 value was calculated using GraphPad Prism program. As for recombinant human DPP4 (R&D Systems), 25 mM tris (pH 8.0) buffer as a buffer solution and H-Gly-Pro-AMC (Bachem) as a substrate were used. As for recombinant human DPP7 (R&D Systems), 25 mM MES (pH 6.0) buffer as a buffer solution and Lys-Pro-AMC (Bachem) as a substrate were used. As for recombinant human DPP8 (PBS Bioscience), as a buffer solution, a 10 mM tris (pH 7.4) buffer comprising 10 mM of magnesium chloride and 0.05% of Tween 20, and Z-Ala-Pro-AMC (BPS Bioscience) as a substrate were used. As for recombinant human DPP9 (R&D Systems), a 25 mM tris (pH 8.0) buffer as a buffer solution and H-Gly-Pro-AMC (Bachem) as a substrate were used. As for recombinant human PREP (R&D System), as a buffer solution, a 25 mM tris (pH 7.5) buffer comprising 250 mM sodium chloride and 2.5 mM DTT (Dithiolthreitol), and Z-Gly-Pro-AMC (Bachem) as a substrate were used. The evaluation was made by using 10 ng of DPP4, PDD7, and PREP, 20 ng of DPP8, and 50 ng of DPP9 based on the final reaction. In the evaluation of DPP4, the test compounds were subjected to serial dilution in a buffer under the condition containing up to 0.1% of DMSO. In the evaluation of DPP7, DPP8, DPP9, and PREP, the test compounds were subjected to serial dilution in each buffer under the condition containing up to 0.5% of DMSO.

Recombinant human FAP [1] = target: T2, Recombinant human FAP (Homo sapiens, UniProt Q12884); test: FAP FRET assay, FGF21-sequence FRET peptide substrate; settings: FRET peptide with human FGF21 sequence, 6 μM, 37° C.
T2 construct: purchased R&D systems
T2 sequence (Q12884 1-760): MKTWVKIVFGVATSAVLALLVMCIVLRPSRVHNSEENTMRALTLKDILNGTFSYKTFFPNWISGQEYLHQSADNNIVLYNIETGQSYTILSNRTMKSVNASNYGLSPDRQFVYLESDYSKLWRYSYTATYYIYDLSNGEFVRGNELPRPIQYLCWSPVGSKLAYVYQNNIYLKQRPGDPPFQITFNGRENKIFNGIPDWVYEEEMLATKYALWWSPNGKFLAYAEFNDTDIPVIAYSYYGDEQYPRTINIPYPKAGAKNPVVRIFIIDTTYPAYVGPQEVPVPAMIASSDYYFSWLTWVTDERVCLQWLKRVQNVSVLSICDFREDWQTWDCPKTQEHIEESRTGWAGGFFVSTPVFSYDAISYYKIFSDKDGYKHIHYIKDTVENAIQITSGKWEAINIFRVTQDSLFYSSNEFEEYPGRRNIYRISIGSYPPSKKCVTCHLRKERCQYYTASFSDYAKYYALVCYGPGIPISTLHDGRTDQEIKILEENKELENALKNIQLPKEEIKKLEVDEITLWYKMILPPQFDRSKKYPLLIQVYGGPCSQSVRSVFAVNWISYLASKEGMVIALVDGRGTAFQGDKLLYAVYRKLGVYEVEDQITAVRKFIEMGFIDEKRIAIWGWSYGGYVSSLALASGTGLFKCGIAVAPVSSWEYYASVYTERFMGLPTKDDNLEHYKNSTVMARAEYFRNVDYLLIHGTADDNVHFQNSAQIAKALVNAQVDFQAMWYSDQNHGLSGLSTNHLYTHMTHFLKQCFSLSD
Method in brief: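 Recombinant human FAP, 10 ng per reaction, in 50 mM HEPES pH 7.2 with 150 mM NaCl, 0.1 mg/ml BSA, 1 mM EDTA; HyLite Fluor 488/QXL 520 FRET peptide of human FGF21 sequence at 6 μM final, ≤0.1% DMSO, 37° C. IC50 from 8-point curves by four-parameter logistic fit.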

DPP4 = DPP4 (Homo sapiens, UniProt P27487); test: DPP4 inhibition, fluorogenic substrate H-Gly-Pro-AMC; design: purchased R&D Systems; settings: recombinant human DPP4
DPP4, sequence (P27487 whole entry): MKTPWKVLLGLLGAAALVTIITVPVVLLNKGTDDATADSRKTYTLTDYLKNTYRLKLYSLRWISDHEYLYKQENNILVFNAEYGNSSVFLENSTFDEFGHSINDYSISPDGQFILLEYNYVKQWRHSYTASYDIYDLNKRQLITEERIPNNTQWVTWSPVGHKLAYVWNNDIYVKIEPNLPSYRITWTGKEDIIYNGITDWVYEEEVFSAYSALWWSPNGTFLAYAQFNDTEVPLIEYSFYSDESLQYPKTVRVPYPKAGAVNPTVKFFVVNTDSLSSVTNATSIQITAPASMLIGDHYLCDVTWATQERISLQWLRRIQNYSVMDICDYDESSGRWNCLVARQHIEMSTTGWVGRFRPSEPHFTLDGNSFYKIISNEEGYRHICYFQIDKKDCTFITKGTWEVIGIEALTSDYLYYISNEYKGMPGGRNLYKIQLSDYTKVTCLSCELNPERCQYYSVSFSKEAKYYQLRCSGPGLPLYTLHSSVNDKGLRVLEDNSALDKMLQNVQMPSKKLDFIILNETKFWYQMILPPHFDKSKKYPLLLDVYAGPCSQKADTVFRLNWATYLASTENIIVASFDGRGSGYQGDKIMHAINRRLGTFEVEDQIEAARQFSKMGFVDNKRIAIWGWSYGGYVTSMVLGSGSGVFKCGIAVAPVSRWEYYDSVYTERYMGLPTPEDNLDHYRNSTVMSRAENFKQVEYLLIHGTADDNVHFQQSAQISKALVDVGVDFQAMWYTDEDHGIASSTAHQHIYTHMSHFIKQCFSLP

Recombinant human FAP [2] = target: T2, Recombinant human FAP; test: FAP inhibition, fluorogenic substrate Z-Gly-Pro-AMC; settings: recombinant human FAP, substrate Z-Gly-Pro-AMC
Method in brief: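 Recombinant human FAP, 10 ng per reaction, in 50 mM Tris pH 7.5 with 1 M NaCl and 1 mg/ml BSA at 25° C; substrate Z-Gly-Pro-AMC, ≤0.1% DMSO. AMC fluorescence read at ex 380/em 460 nm; % signal-rate decrease vs no-inhibitor control, 8-point curves fitted to a four-parameter logistic for IC50.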

Structure (SMILES)	IC50 (recombinant human DPP7) [nM]	IC50 (Recombinant human FAP [1]) [nM]	IC50 (DPP4) [nM]	IC50 (Recombinant human FAP [2]) [nM]
N#C[C@@H]1C[C@H](F)CN1C(=O)CN1CC[C@@H](Nc2ccc(F)c3ncccc23)C1 [Example 175, (2S,4S)-4-fluoro-1-[2-[(3R)-3-[(8-fluoro-5-quinolyl)amino]pyrrolidin-1-yl]acetyl]pyrrolidine-2-carbonitrile]	4240	3.5	1690	
N#C[C@@H]1CCCN1C(=O)CN1CC[C@@H](Nc2cccc3ncc(F)cc23)C1 [Example 209, (2S)-1-[2-[(3R)-3-[(3-fluoro-5-quinolyl)amino]pyrrolidin-1-yl]acetyl]pyrrolidine-2-carbonitrile]	7010	1.7	4430	
COc1ccc(N[C@H]2CCN(CC(=O)N3CCC[C@H]3C#N)C2)c2cccnc12 [Example 243, (2S)-1-[2-[(3S)-3-[(8-methoxy-5-quinolyl)amino]pyrrolidin-1-yl]acetyl]pyrrolidine-2-carbonitrile]	3240	4	16900	2.6
N#C[C@@H]1C[C@H](F)CN1C(=O)CN1CC[C@H](Nc2ccc(C(=O)Nc3ccccc3)c3ncccc23)C1 [Example 283, N-phenyl-5-[[(3S)-1-[2-oxo-2-[(2S,4S)-2-cyano-4-fluoro-pyrrolidin-1-yl]ethyl]pyrrolidin-3-yl]amino]quinoline-8-carboxamide]	74.3	1	1210	
N#C[C@@H]1CCCN1C(=O)CN1CC[C@H](Nc2ccc(C(=O)Nc3ccccc3)c3ncccc23)C1 [Example 287, N-phenyl-5-[[(3S)-1-[2-oxo-2-[(2S)-2-cyanopyrrolidin-1-yl]ethyl]pyrrolidin-3-yl]amino]quinoline-8-carboxamide]	904	1.2	7580	
N#C[C@@H]1C[C@H](F)CN1C(=O)CN1CC[C@H](Nc2ccc(C(=O)Nc3ccccn3)c3ncccc23)C1 [Example 294, N-(2-pyridyl)-5-[[(3S)-1-[2-oxo-2-[(2S,4S)-2-cyano-4-fluoro-pyrrolidin-1-yl]ethyl]pyrrolidin-3-yl]amino]quinoline-8-carboxamide]	16.6	0.6	439	
Cc1ccc(NC2CCN(CC(=O)N3C[C@@H](F)C[C@H]3C#N)CC2)c2cccnc12 [Example 331, (2S,4S)-4-fluoro-1-[2-[4-[(8-methyl-5-quinolyl)amino]-1-piperidyl]acetyl]pyrrolidine-2-carbonitrile]		6.5	5110	3.8
N#C[C@@H]1CCCN1C(=O)CN1CCC(Oc2ccnc3cc(Cl)ccc23)CC1 [Example 428, (2S)-1-[2-[4-[(7-chloro-4-quinolyl)oxy]-1-piperidyl]acetyl]pyrrolidine-2-carbonitrile]		17.3	32600	
N#Cc1ccc2c(OC3CCN(CC(=O)N4CCC[C@H]4C#N)CC3)cccc2n1 [Example 430, 5-[[1-[2-oxo-2-[(2S)-2-cyanopyrrolidin-1-yl]ethyl]-4-piperidyl]oxy]quinoline-2-carbonitrile]		24.5	29400	
N#C[C@@H]1CCCN1C(=O)CN1CCC(Oc2ccc(Cl)c3ncccc23)CC1 [Example 431, (2S)-1-[2-[4-[(8-chloro-5-quinolyl)oxy]-1-piperidyl]acetyl]pyrrolidine-2-carbonitrile]	6340	12.2	19300	
Cc1ccc2c(OC3CCN(CC(=O)N4C[C@@H](F)C[C@H]4C#N)CC3)ccnc2c1 [Example 432, (2S,4S)-4-fluoro-1-[2-[4-[(7-methyl-4-quinolyl)oxy]-1-piperidyl]acetyl]pyrrolidine-2-carbonitrile]		19.8	6580	

Continued by falling IC50 (Recombinant human FAP [1]), values first:

IC50 (recombinant human DPP7) [nM]	IC50 (Recombinant human FAP [1]) [nM]	IC50 (DPP4) [nM]	IC50 (Recombinant human FAP [2]) [nM]	Structure (SMILES)
2790	8.2	2190		N#C[C@@H]1C[C@H](F)CN1C(=O)CN1CC[C@@H](Nc2cnc3ncccc3c2)C1 [Example 171, (2S,4S)-4-fluoro-1-[2-[(3R)-3-(1,8-naphthyridin-3-ylamino)pyrrolidin-1-yl]acetyl]pyrrolidine-2-carbonitrile]
3970	6.9	37200		N#C[C@@H]1CCCN1C(=O)CN1CCC(Oc2cccc3ncc(F)cc23)CC1 [Example 429, (2S)-1-[2-[4-[(3-fluoro-5-quinolyl)oxy]-1-piperidyl]acetyl]pyrrolidine-2-carbonitrile]
	6.5	5470	3.3	N#Cc1ccc2c(OC3CCN(CC(=O)N4C[C@@H](F)C[C@H]4C#N)CC3)cccc2n1 [Example 417, 5-[[1-[2-oxo-2-[(2S,4S)-2-cyano-4-fluoro-pyrrolidin-1-yl]ethyl]-4-piperidyl]oxy]quinoline-2-carbonitrile]
	6.3	3290	2.8	N#C[C@@H]1C[C@H](F)CN1C(=O)CN1CCC(Nc2ccc(F)c3ncccc23)CC1 [Example 330, (2S,4S)-4-fluoro-1-[2-[4-[(8-fluoro-5-quinolyl)amino]-1-piperidyl]acetyl]pyrrolidine-2-carbonitrile]
4610	6	≥ 100000		N#C[C@@H]1C[C@H](F)CN1C(=O)CN1CCC(Nc2ccnc3c(Cl)cccc23)CC1 [Example 344, (2S,4S)-1-[2-[4-[(8-chloro-4-quinolyl)amino]-1-piperidyl]acetyl]-4-fluoro-pyrrolidine-2-carbonitrile]
6560	3.2	4830		N#C[C@@H]1C[C@H](F)CN1C(=O)CN1CCC(Oc2ccnc3c(F)cccc23)CC1 [Example 435, (2S,4S)-4-fluoro-1-[2-[4-[(8-fluoro-4-quinolyl)oxy]-1-piperidyl]acetyl]pyrrolidine-2-carbonitrile]
6080	1.6	63600	1.3	N#C[C@@H]1CCCN1C(=O)CN1CC[C@H](Nc2cccc3ncc(F)cc23)C1 [Example 234, (2S)-1-[2-[(3S)-3-[(3-fluoro-5-quinolyl)amino]pyrrolidin-1-yl]acetyl]pyrrolidine-2-carbonitrile]

From patent US11655235B2, “Pyrrolidine and piperidine compounds” (YUHAN CORPORATION, priority 2019, dated 2023)
